Measurements from patent US7700284B2, “Reporter transcription unit populations and kits comprising same” (Attagene, Inc., priority 2004, dated 2010).

Assays:
NF-κB RTU = assay: Multiplexed RTU reporter profiling in transfected HEK293 cells, NF-κB RTU; conditions: HEK293, 100 u per ml, 6 hrs stimulation, 11-RTU library
metal-sensitive MTΔ RTU = assay: Multiplexed RTU reporter profiling in transfected HEK293 cells, MTΔ RTU; conditions: HEK293, 100 μM, 6 hrs stimulation, 11-RTU library
[1] = system: Elk-1 TAD RTU (ERK1/2 pathway); assay: MAPK pathway TAD RTU profiling in HEK293 cells, Elk-1 TAD RTU; type: cell-based, human; conditions: HEK293, PMA 10 uM, 6 hours induction, versus control cells
ATF2 TAD RTU = assay: MAPK pathway TAD RTU profiling in HEK293 cells, ATF2 TAD RTU; type: cell-based, human; conditions: HEK293, PMA 10 uM, 6 hours induction
c-Jun TAD RTU = assay: MAPK pathway TAD RTU profiling in HEK293 cells, c-Jun TAD RTU; type: cell-based, human; conditions: HEK293, PMA 10 uM, 6 hours induction
[2] = target: GR RTU (Gal4DBD-GR fusion) (Homo sapiens, UniProt P04150); conditions: HEK293, 10 uM, 6 hrs induction, versus non-induced cells
Chain of GR RTU (Gal4DBD-GR fusion) (P04150 486-777): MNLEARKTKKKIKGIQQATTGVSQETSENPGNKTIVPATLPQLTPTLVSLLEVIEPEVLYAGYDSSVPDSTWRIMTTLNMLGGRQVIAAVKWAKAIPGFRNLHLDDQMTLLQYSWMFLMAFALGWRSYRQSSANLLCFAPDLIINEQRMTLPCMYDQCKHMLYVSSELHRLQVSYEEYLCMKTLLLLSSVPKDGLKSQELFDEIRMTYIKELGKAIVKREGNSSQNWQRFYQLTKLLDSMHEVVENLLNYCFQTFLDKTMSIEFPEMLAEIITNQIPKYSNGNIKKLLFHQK

For “IL-1β: Human recombinant IL-1β purchased from Roche; NF-κB inducer”, which “activation of NF-κB RTU (stimulated versus nonstimulated cells)” value (NF-κB RTU) is on record?
The value was “specifically activated”.

How did the “induction of MTΔ RTU (stimulated versus nonstimulated cells)” value (metal-sensitive MTΔ RTU) turn out when [Cl-].[Cl-].[Zn+2] [ZnCl2] was run?
The value was “induced”.

What does the source list for CCCCCCCCCCCCCC(=O)O[C@@H]1[C@@H](C)[C@@]2(O)[C@@H](C=C(CO)C[C@@]3(O)C(=O)C(C)=C[C@@H]23)[C@@H]2C(C)(C)[C@]12OC(C)=O [PMA, 4α-Phorbol 12-myristate 13-acetate]?
activation of the Elk-1 TAD RTU [1]: ~20 fold; activity of ATF2 TAD RTU (ATF2 TAD RTU): remained unchanged; activity of c-Jun TAD RTU (c-Jun TAD RTU): remained unchanged

Which “increase of reporter peak produced by GR RTU” value [2] does the source give for dexamethasone [Dexamethazone] here?
The value was 10 fold.
